What was measured:
[1] = Lactone ring stability in PBS by HPLC; format: physicochemical; conditions: 37° C., 1 μM
Procedure: FIG. 12 contrasts the improved stabilities of four novel homosilatecans of the present invention with their corresponding silatecan structure containing the α-hydroxylactone functionality. All the experiments of FIG. 12 were conducted in PBS at 37° C.
(§1) HPLC solvents were from Fisher Scientific.
To determine the stabilities of homosilatecans in PBS, an aliquot of each of the homosilatecans in DMSO was added to phosphate buffered saline (PBS), pH 7.4 in a HPLC autosampler vial maintained at 37° C. in a water bath to result in final drug concentration of 1 μM. The drug-containing vial was quickly transferred to the autosampler maintained at 37° C. and aliquots analyzed at various time points. All the determinations were done in triplicate. The data was collected and analyzed using Waters Millenium software. The fraction of lactone was calculated using the peak area of lactone and carboxylate peak and using the lactone/carboxylate ratio.

[2] = Lactone ring stability in PBS containing human serum albumin by HPLC; format: in vitro ADME; conditions: PBS with 30 mg/ml HSA, 37° C., 1 μM
Procedure: FIG. 13 depicts the improved stabilities of four novel homosilatecans of the current invention following incubation in PBS containing 30 mg/ml human serum albumin at 37° C. […] All the experiments of FIG. 14 were conducted in human plasma at 37° C. Plasma samples were continuously aerated by a stream of blood gas resulting in the maintenance of pH at values of 7.5±0.1.
as §1
To study the stabilities of homosilatecans in PBS containing human serum albumin (HSA), the HSA was dissolved in PBS, pH 7.4 at the concentration of 30 mg/ml and incubated at 37° C. The pH was measured and adjusted to 7.4+/−0.5 using 0.1 M KOH or 0.1 M HCl. Incubation continued until pH stabilized within the target range. An aliquot of PBS/HSA was removed and placed in an autosampler vial and maintained at 37° C. for 10 min. An aliquot of the drug in DMSO was added to the sample resulting in a final drug concentration of 1 μM. The vial was quickly added to the HPLC autosampler maintained at 37° C. and aliquots were injected and analyzed by HPLC at different time points. The data analysis was as described above for the drug in PBS only samples.

[3] = Fluorescence anisotropy titration, equilibrium binding to DMPC small unilamellar vesicles; format: physicochemical; conditions: for KDMPC overall association constant: electroneutral DMPC vesicles, PBS pH 7.4, 37° C., K values subject to 10% uncertainty
Procedure: As a consequence of the brilliant fluorescence emissions from the newly synthesized homosilatecans (a summary of the spectral parameters can be found in Table 1), the lipid bilayer adsorption isotherms summarized in FIG. 4 were relatively free from any background signal. The method of fluorescence anisotropy titration was used to construct the adsorption isotherms. The experiments were conducted at drug concentrations of 1 μM in PBS buffer (37° C.). […] Because of the potential of the lactone ring of the homosilatecans and camptothecins to hydrolyze in PBS, anisotropy values at each lipid concentration were determined immediately (approx. 1 min.) following the addition of the lactone form of each agent to the liposome suspension as to minimize any possibility of conversion to the carboxylate form. Using drug concentrations of 1 μM and long pass filters to isolate emitted light from background signal (that is, scattered exciting light and extraneous fluorescence signal resulting from the possible presence of impurities), signal levels from drugs dissolved in PBS buffer were typically 99.97% in the absence of membrane and greater than 98% in the presence of membrane. Adsorption isotherms were used to determine overall association constants for the homosilatecan, silatecan, and camptothecin drugs. Overall association constants are defined as: K=[AB]/[AF][L] where [AB] represents the concentration of bound drug, [AF] represents the concentration of free drug, and [L] represents the total lipid concentration in the vesicle suspension. This equation is valid when the concentration of free lipid is approximately equal to the concentration of total lipid (that is, the concentration of free lipid is in significant excess over the concentration of bound drug). Provided this condition is satisfied, K may be determined from the inverse of the slope of a double reciprocal plot. In such a double reciprocal plot, 1/fraction of the total drug bound is plotted vs. 1/lipid concentration, with a y-intercept value of 1 (for a system displaying binding site homogeneity). Such double-reciprocal plots for the associations of the new homosilatecans analogs (both lactone and carboxylate forms) with DMPC and DMPG small unilamellar vesicle (SUV) preparations were linear with good correlation coefficients.
The studies summarized in Table 2 examine the structural basis of homosilatecan associations for lipid bilayers. Two types of membranes were included in these studies which were conducted under near physiological conditions of pH and temperature; these membranes include fluid-phase and electroneutral L-α-dimyristoylphosphatidyl-choline (DMPC); and fluid-phase and negatively-charged L-α-dimyristoylphosphatidylglycerol (DMPG). DMPC and DMPG have identical chain length but the charges on their head groups differ.
In the studies of Table 2, binding isotherms were constructed using the method of fluorescence anisotropy titration as discussed above, and K values were determined from the slopes of the double-reciprocal plots. The K values are subject to 10% uncertainty. One of the most striking features of the data contained in Table 2 is the strong modulation which can be achieved through the creation of A,B,E-ring modified camptothecins (for example, the homosilatecans known as DB-38, DB-90, and DB-91) or B,E-ring modified camptothecins (for example, the homosilatecan known as DB-81). Homosilatecans containing either a sole substitution at the 7 position or dual substitution at the 7 and 10 positions have been created and found to display very high lipophilicities. Included in Table 2 are camptothecin compounds (topotecan and camptothecin). For DB-81, the lipophilicity for DMPC membranes relative to corresponding value for topotecan increases over 1,400-fold. Data for these agents were included to show the highly lipophilic nature of the new homocamptothecins relative to compounds such as topotecan and camptothecin. […]

[4] = Lactone ring stability in whole human blood by HPLC; conditions: for Percent Lactone in Human Blood after 3 Hours of Incubation: pH 7.4, 37° C. (Table 4); for % Lactone: whole human blood, 1 μM
Procedure: All experiments were conducted at pH 7.4 and 37° C.
as §1

Row | Structure (SMILES) | % Lactone ([1]; PBS pH 7.4, 3 hours) [%] | % Lactone ([1]; PBS pH 7.4, 24 hours) [%] | % Lactone ([2]; 3 hours) [%] | % Lactone ([2]; 24 hours) [%] | KDMPC overall association constant [3] [M⁻¹] | Percent Lactone in Human Blood after 3 Hours of Incubation [4] [%] | % Lactone ([4]; 3 hours incubation, pH 7.4, 37° C.) [%] | increase of lipophilicity for DMPC membranes relative to topotecan ([3]; 1 μM, pH 7.4) | % Lactone ([4]; 24 hours incubation, 37° C.) [%] | decrease in DMPC binding upon ring opening (lactone vs carboxylate) [3] [fold]
1 | CCC1(O)CC(=O)OCc2c1cc1n(c2=O)Cc2c-1nc1ccc(N)cc1c2[Si](C)(C)C (racemic) [DB-38, 5-Ethyl-1,4,5,13-tetrahydro-5-hydroxy-10-amino-12-trimethylsilyl-3H,15H-oxepino[3′,4′:6,7]indolizino[1,2-b]quinoline-3,15-dione] | 82.8 ± 0.7 | 26.8 ± 2.3 | 81.4 ± 0.3 | 34.1 ± 2.2 | 1400 | 56 | 56.4 ± 0.6 |  |  | 
2 | CCC1(O)CC(=O)OCc2c1cc1n(c2=O)Cc2c-1nc1ccccc1c2[Si](C)(C)C(C)(C)C (racemic) [DB-81, 5-Ethyl-1,4,5,13-tetrahydro-5-hydroxy-12-tert-butyldimethylsilyl-3H,15H-oxepino[3′,4′:6,7]indolizino[1,2-b]quinoline-3,15-dione] | 84.9 ± 0.3 | 30.9 ± 2.0 | 88.1 ± 0.2 | 42.5 ± 1.6 | 14400 | 87 |  | over 1,400 fold | 27.0 ± 2.3 | 
3 | CCC1(O)CC(=O)OCc2c1cc1n(c2=O)Cc2c-1nc1ccc(N)cc1c2[Si](C)(C)C(C)(C)C (racemic) [DB-90, 5-Ethyl-1,4,5,13-tetrahydro-5-hydroxy-10-amino-12-tert-butyldimethylsilyl-3H,15H-oxepino[3′,4′:6,7]indolizino[1,2-b]quinoline-3,15-dione] | 83.7 ± 0.5 | 26.1 ± 1.0 | 86.8 ± 0.2 | 42.0 ± 2.7 | 8600 | 85 |  |  | 24.6 ± 1.3 | 10
4 | CCC1(O)CC(=O)OCc2c1cc1n(c2=O)Cc2c-1nc1ccc(O)cc1c2[Si](C)(C)C(C)(C)C (racemic) [DB-91, 5-Ethyl-1,4,5,13-tetrahydro-5-hydroxy-10-hydroxy-12-tert-butyldimethylsilyl-3H,15H-oxepino[3′,4′:6,7]indolizino[1,2-b]quinoline-3,15-dione] | 83.1 ± 0.3 | 32.2 ± 1.0 | 82.9 ± 0.3 | 33.2 ± 3.0 |  | 85 |  |  | 37.1 ± 1.8 | 10

— patent publication US7538220B2, “Intermediates in the preparation of homocamptothecin analogs” (University of Pittsburgh - of the Commonwealth System of …, priority 1999, dated 2009)
